In PMC7262662 (BioMed Research International, 2020):
Marks after values point to notes of the source that are not given here.

What was measured:
[1] = tested on: FIPV; test: Antiviral assay in cotreatment: viral RNA quantification by qPCR; assay type: cell-based, feline infectious peritonitis virus; details: for % log10 copy number decrement: compared to FIPV sample; for 3′UTR log10 copy number: cotreatment
Protocol: CrFK cells at a density of 1 × 10^5 were cultured in medium in 24-well plates for 24 h at 37°C. […] The culture supernatant was centrifuged at 700 g for 10 min, and the virus-containing supernatant was collected and used for virus quantification.
Viral RNA was extracted from the collected supernatant using a Viral Nucleic Acid Extraction Kit II (Geneaid, New Taipei City, Taiwan) following the protocol provided by the manufacturer. Cellular total RNA was extracted from the CrFK cell pellet using the RNeasy® Mini Kit, which includes DNase treatment (QIAGEN, Germantown, MD, USA). The concentration and purity of the extracted RNA were quantified using the Eppendorf BioSpectrometer® kinetic (Eppendorf, Hamburg, Germany). The extracted RNA was stored at -80°C until further use.
Complementary DNA (cDNA) was prepared, and viral mRNA was quantified using quantitative PCR (qPCR) employing previously described methods. The qPCR results were quantified using the absolute quantification approach, where a standard curve of a serial dilution of viral cDNA template was plotted before the quantification.

[2] = tested on: FIPV-infected cells; test: Feline-specific magnetic bead-based multiplex immunoassay; assay type: cell-based; details: 20 μM
Protocol: The culture supernatant was centrifuged and used for the bead-based multiplex immunoassay, while the attached cells were trypsinised and collected for the cellular proinflammatory cytokine mRNA expression study.
Nineteen immune-related proteins including cytokines, chemokines, growth factors, and other immunologically active proteins were measured using a commercially available feline-specific magnetic bead-based multiplex immunoassay. The Feline Cytokine/Chemokine Magnetic Bead Panel Premixed (FCYTOMAG-20K-PMX; EMD Millipore, Billerica, MA, USA) was purchased and used according to the manufacturer's recommendation. Quality control samples, standards, and sets of culture sample were run on plates in duplicate. Prior to measurement, the culture samples were concentrated using Concentrator 5301 (Eppendorf, Hamburg, Germany). The plates were evaluated using MAGPIX® (Luminex, Austin, TX, USA); subsequently, the results were analysed using MILLIPLEX Analyst v.5.1 (EMD Millipore, Billerica, MA, USA).

In the case of COc1cc(/C=C/C(=O)CC(=O)/C=C/c2ccc(O)c(OC)c2)ccc1O [Curcumin], the “% log10 copy number decrement” value ([1]; 48 h, 5 μM) is reported as 27.54 ± 3.28^b %, the “3′UTR log10 copy number” value ([1]; 48 h, 5 μM, FIPV sample 11.86 ± 0.06) is reported as 11.72 ± 0.06^d and the “% log10 copy number decrement” value ([1]; 48 h, 10 μM) is reported as 40.50 ± 5.41^c %. The “3′UTR log10 copy number” value ([1]; 48 h, 10 μM, FIPV sample 11.86 ± 0.06) was 11.63 ± 0.01^cd, the “% log10 copy number decrement” value ([1]; 48 h, 20 μM) was 59.46 ± 2.45^e % and the “% log10 copy number decrement” value ([1]; 48 h, 20 μM, listed as curcumin) was 59.46 ± 2.45%. The “3′UTR log10 copy number” value ([1]; 48 h, 20 μM, FIPV sample 11.86 ± 0.06) was 11.46 ± 0.05^b, the “% log10 copy number decrement” value ([1]; 72 h, 5 μM) was 10.70 ± 5.47^b % and the “3′UTR log10 copy number” value ([1]; 72 h, 5 μM, FIPV sample 12.00 ± 0.03) was 11.95 ± 0.01^cd. For the same compound, the “% log10 copy number decrement” value ([1]; 72 h, 10 μM) was 26.92 ± 5.93^cd %, the “3′UTR log10 copy number” value ([1]; 72 h, 10 μM, FIPV sample 12.00 ± 0.03) was 11.86 ± 0.06^abc and the “% log10 copy number decrement” value ([1]; 72 h, 20 μM) was 26.38 ± 2.75^c %. For the same compound, the “3′UTR log10 copy number” value ([1]; 72 h, 20 μM, FIPV sample 12.00 ± 0.03) was 11.87 ± 0.04^abc, the TNFα concentration ([2]; 24 h, infected cells untreated 38.13 ± 0.00) was 37.40 ± 1.04^b pg/mL and the IL-18 concentration ([2]; 24 h, infected cells untreated 60.62 ± 3.50) was 47.92 ± 1.73^ab pg/mL. The KC concentration ([2]; 24 h, infected cells untreated 80.76 ± 3.71) was 58.52 ± 15.92^bc pg/mL, the SDF-1 concentration ([2]; 24 h, infected cells untreated 161.3 ± 7.1) was 163.5 ± 3.1^b pg/mL and the PDGF-BB concentration ([2]; 24 h, infected cells untreated 445.6 ± 18.7) was 446.0 ± 0.0^b pg/mL. The RANTES concentration ([2]; 24 h, infected cells untreated 868.6 ± 62.1) was 746.7 ± 18.3^c pg/mL, the MCP-1 concentration ([2]; 24 h, infected cells untreated 934.8 ± 0.0) was 934.8 ± 0.0^c pg/mL and the IL-8 concentration ([2]; 24 h, infected cells untreated 2078.0 ± 138.6) was 1509.5 ± 16.3^c pg/mL. The TNFα concentration ([2]; 48 h, infected cells untreated 46.83 ± 6.11) was 35.18 ± 2.09^a pg/mL, the IL-6 concentration ([2]; 48 h, infected cells untreated 108.06 ± 4.85) was 54.75 ± 6.34^∗ pg/mL and the SDF-1 concentration ([2]; 48 h, infected cells untreated 158.2 ± 0.9) was 84.2 ± 2.9^a pg/mL. The KC concentration ([2]; 48 h, infected cells untreated 266.1 ± 35.2) was 186.4 ± 14.2^c pg/mL, the PDGF-BB concentration ([2]; 48 h, infected cells untreated 440.5 ± 43.1) was 354.2 ± 30.0^a pg/mL and the MCP-1 concentration ([2]; 48 h, infected cells untreated 934.2 ± 57.9) was 735.5 ± 34.2^a pg/mL. The IL-8 concentration ([2]; 48 h, infected cells untreated 1660.0 ± 196.6) was 1074.5 ± 9.2^b pg/mL and the RANTES concentration ([2]; 48 h, infected cells untreated 2317.0 ± 355.0) was 618.6 ± 70.8^b pg/mL.
